Experimental findings from EP0104826A2, “Immunomodulator and method of use for immunomodulation” (FUJISAWA PHARMACEUTICAL CO., LTD., priority 1982, dated 1984) are described below.

Common to all, as to format: in vivo
The test system of experiment [1] is thymus. Kind of experiment: Dexamethasone-induced thymus atrophy in mice. As to conditions: ddY mice; dexamethasone 1 ug/ml in drinking water, no sample; n=5. On the procedure:
Five week-old ddY mice(male) were used. Samples were given subcutaneously twice per day from day 0 to day 2 of the experiment. Five hours after first medication on day 0, mice were supplied with drinking water containing 1 ug/ml of dexamethasone.
At day 2, the weight of thymus of the treated mice was compared with that of the nontreated controls.

For experiment [2], the system named is antibody forming capacities. Kind of experiment: Antibody forming capacity (PFC-SRBC) in mice immunosuppressed with cyclophosphamide. Particulars: BDF1 mice; Cyclophosphamide (22.5 mg/kg) i.p. + Saline. How it is done: Female BDF1 (8 weeks in age) mice were injected intraperitoneally with cyclophosphamide (22.5 mg/kg) 4 days before immunization with 5 x 10^8 SRBC. Samples were administered to mice i.p. from four days before immunization, every day for five days.
Mouse splenic lymphocytes producing antibody against SRBC were quantitated by using Cunningham modification method described previously.

Experiment [3] concerns antibody forming capacities. Kind of experiment: Antibody forming capacity (PFC-SRBC) in mice immunosuppressed with mitomycin C. Particulars: BDF1 mice; Mitomycin C (1.0 mg/kg) i.p. + Saline. On the procedure:
Female BDF1 (8 weeks in age) mice were injected intraperitoneally with mitomycin C (1 mg/kg) from four days before immuization with 5 x 10^8 SRBC, every day for three days. Samples also were administered to mice intraperitoneally from four days before immunization, every day for five days.
At day 9, mice were sacrificed and the number of direct plaque forming cells per spleen was measured by using Cunningham modification method.

For `C[C@@H]1C[C@H]2[C@@H]3CCC4=CC(=O)C=C[C@]4(C)[C@@]3(F)[C@@H](O)C[C@]2(C)[C@@]1(O)C(=O)CO` [Dexamethasone, reference compound], the Thymus weight in experiment [1] turned out to be 57.2 mg/mouse.
With `O=P1(N(CCCl)CCCl)NCCCO1` (stereo not drawn) [Cyclophosphamide, reference compound], the “PFC-SRBC/spleen (average number of 5 mice/group)” value in experiment [2] was 8.46 x 10^4 PFC-SRBC/spleen.
With `CO[C@@]12[C@H](COC(N)=O)C3=C(C(=O)C(C)=C(N)C3=O)N1C[C@@H]1N[C@@H]12` [Mitomycin C, reference compound], the “PFC-SRBC/spleen (average number of 5 mice/group)” value in experiment [3] was 12.65 x 10^4 PFC-SRBC/spleen.
